Laboratory results published in patent US20170112775A1, “SITU SELF-ASSEMBLING PRO-NANOPARTICLE COMPOSITIONS AND METHODS OF PREPARATION AND USE THEREOF” (University of North Texas Health Science Center, priority 2015, published 2017).
Structures can show the parent of a compound that is named as a salt. Where two headings read alike, the source gives them in different places.

Assays:
[1] = cited from earlier work
[2] = system: PC3 resistant prostate cancer cell line; test: MTT cytotoxicity, PC3 resistant; assay type: cell-based; conditions: Homo sapiens, 72 hr
Method: (§1) The cytotoxicity of DTX MT NPs was tested in PC3 and DU145 sensitive and resistant cell using MTT [3-(4,5-dimethylthiazol-2-yl)-2,5-diphenyltetrazolium bromide] assay. Cells were seeded into 96-well plates with a density of 7,000 cells/well and incubated at 37° C. for 24 hr under 5% CO2. Following that, cells were treated with a drug equivalent concentration ranging from 0.5-10,000 nM for DTX, DTX MT NPs, and blank NPs. Due to low water solubility, DTX was dissolved with DMSO. After 72 hr of incubation, the medium was removed from each well and replaced with 90 μL of DMEM medium without phenol red and 10 μL of MTT (5 mg/mL in PBS). The plates were incubated at 37° C. with 5% CO2 for 4 hr. […] The absorbance was measured at a test wavelength of 570 nm and a reference wavelength of 650 nm in a microplate reader (Synergy H1 hybrid Multi-Mode Microplate Reader)
(§2) The cytotoxicity of CUR MT NPs was tested in DU145 and PC-3 human prostate cancer cell lines using MTT [3-(4,5-dimethylthiazol-2-yl)-2,5-diphenyltetrazolium bromide] assay. […] After 72 hr of incubation, the medium was removed from each well and replaced with 90 μL of DMEM medium without phenol read and MTT (10 μL of 5 mg/mL in PBS). […] The absorbance was measured at a test wavelength of 570 nm and a reference wavelength of 650 nm in a microplate reader (Beckman Coulter, Inc.).

[3] = system: DU145 resistant prostate cancer cell line; test: MTT cytotoxicity, DU145 resistant; assay type: cell-based, human; conditions: for IC50: Homo sapiens, 72 hr, MTT
Method: The cytotoxicity of DTX MT NPs was tested in PC3 and DU145 sensitive and resistant cell using MTT [3-(4,5-dimethylthiazol-2-yl)-2,5-diphenyltetrazolium bromide] assay. Cells were seeded into 96-well plates with a density of 7,000 cells/well and incubated at 37° C. for 24 hr under 5% CO2. Following that, cells were treated with a drug equivalent concentration ranging from 0.5-10,000 nM for DTX, DTX MT NPs, and blank NPs. Due to low water solubility, DTX was dissolved with DMSO. After 72 hr of incubation, the medium was removed from each well and replaced with 90 μL of DMEM medium without phenol red and 10 μL of MTT (5 mg/mL in PBS). The plates were incubated at 37° C. with 5% CO2 for 4 hr. Formazan produced by mitochondria enzymes of living cells was dissolved in 150 μL of isopropanol containing 0.04 N HCl for 5 min. The absorbance was measured at a test wavelength of 570 nm and a reference wavelength of 650 nm in a microplate reader (Synergy H1 hybrid Multi-Mode Microplate Reader)
The cytotoxicity of CUR MT NPs was tested in DU145 and PC-3 human prostate cancer cell lines using MTT [3-(4,5-dimethylthiazol-2-yl)-2,5-diphenyltetrazolium bromide] assay. Cells were seeded into 96-well plates at 7,000 cells/well and incubated 37° C. for 24 hr under 5% CO2. After overnight incubation, cells were treated with drug concentration ranging from 0-27 μM for CUR, CUR MT NPs, and blank NPs. Due to low water solubility, CUR was dissolved with DMSO. After 72 hr of incubation, the medium was removed from each well and replaced with 90 μL of DMEM medium without phenol read and MTT (10 μL of 5 mg/mL in PBS). After incubating for 4 hr at 37° C. with 5% CO2, 0.04 N HCl/isopropanol was added to each well and incubated for 5 min to dissolve formazan crystals formed by viable cells. The absorbance was measured at a test wavelength of 570 nm and a reference wavelength of 650 nm in a microplate reader (Beckman Coulter, Inc.).

[4] = system: DU145 sensitive prostate cancer cell line; test: MTT cytotoxicity, DU145 sensitive; assay type: cell-based; conditions: Homo sapiens, 72 hr
Method: as §1, §2

[5] = Solubility screening in oils and surfactants; assay type: physicochemical
Method: These studies were performed to test the solubility of RTV in oils and surfactants. Briefly, oils and surfactants were accurately weighed into glass vials. Certain amounts of […] were added into the glass vials. The vials were stirred on the hot plate maintained at 65° C. for 3 min. The solubilization was monitored by eyes and the drug solubility (w/w) was estimated.
These studies were performed to test the solubility in oils and surfactants. The solubility of DTX was determined in oils (oleic acid, Migloyl 812, Kollisolv® MCT70, Kolliwax® GMSI, Imwitor® 960, and Labrafac) and surfactants (TPGS, Poloxamer 188, Tween 20, and Tween 80). Oils and surfactants were accurately weighed into glass vials. Excess amounts of DTX were added into glass vials containing vehicles. The vials were stirred on the hot plate maintained at 65° C. for 3 min. The drug solubility (w/w) was calculated.
These studies were performed to test the solubility in oils and surfactants. The solubility of CUR was determined in oils (Migloyl 812 N, Migloyl 829, Imwitor 491, Kollisolv MCT70, labrafac, Imwitor 900K, Imwitor 960 and Campriltol 888) and surfactants (Tween 20, Tween 80, Labrasol, Poloxamer 188, TPGS and Gelucire 44/14). Oils and surfactants were accurately weighed into glass vials. Excess amounts of CUR were added into glass vials containing vehicles. The vials were stirred on the hot plate maintained at 65° C. for 3 min. The drug solubility (w/w) was calculated.

[6] = system: PC3 sensitive prostate cancer cell line; test: MTT cytotoxicity, PC3 sensitive; assay type: cell-based; conditions: Homo sapiens, 72 hr
Method: as §1, §2

cancer cells = conditions: cited from earlier work
[7] = PK study after subcutaneous injection; assay type: in vivo, Sprague Dawley rats; conditions: male, Sprague Dawley, rat, plasma, sc, after 6 days, one subcutaneous injection of LPV/RTV ISNPs
Method: Animal studies were performed in compliance with guidelines set by the University of North Texas Health Science Center Institutional Animal Care and Use Committees. Rats were housed in groups of 2 under a 12-h light/dark cycle with free access to food and water for 1 week before use. Sprague Dawley rats (males, 276-300 g, n=4) were purchased from Charles River Laboratories (Wilmington, Mass.). Pharmacokinetic studies were conducted to evaluate the pharmacokinetic profiles of LPV and RTV from LPV/RTV ISNPs. Rats were treated with 100 ul of LPV/RTV ISNPs to provide 100 mg/kg of LPV by subcutaneous injection. After the injection, the inventor collected the blood at 0, 1, 2, 3, 5, 6, 24 hours and 2, 3, 4, 5, 6 days. The blood was immediately centrifuged at 3400 rpm for 5 min at 4° C., and 100 ul of plasma samples were transferred to a new tube and stored at −20° C. until further analysis within 3 weeks. LPV and RTV concentrations in the plasma were determined by liquid chromatography-mass spectrometry (LC-MS, an Agilent G6460 Triple Quad LC-MS system) using a previously reported method.

For `COC(=O)N[C@H](C(=O)N[C@@H](Cc1ccccc1)[C@@H](O)CN(Cc1ccc(-c2ccccn2)cc1)NC(=O)[C@@H](NC(=O)OC)C(C)(C)C)C(C)(C)C` [ATV, atazanavir], the Bioavailability ([1]; without food) is given as “about 20%”.

In the case of `COc1cc(/C=C/C(=O)CC(=O)/C=C/c2ccc(O)c(OC)c2)ccc1O` [Curcumin], the IC50 ([2]; PC-3 resistance) is reported as 7.7 ± 0.1 µM, the IC50 ([3]; DU-145 resistance) is reported as 10 ± 0.5 µM and the “IC50 higher in resistant DU145 than in sensitive DU145” value ([3]; resistant vs sensitive DU145) is reported as 1.4 fold. For the same compound, the IC50 ([4]; DU-145 sensitive) was 7.2 ± 0.4 µM, the “Solubility (w/w)” value ([5]; in Campriltol 888, 65° C.) was 0.0160 w/w and the “Solubility (w/w)” value ([5]; in Gelucire 44/14, 65° C.) was 0.153 w/w. For the same compound, the “Solubility (w/w)” value ([5]; in Imwitor 491, 65° C.) was 0.0261 w/w, the “Solubility (w/w)” value ([5]; in Imwitor 900K, 65° C.) was 0.0512 w/w and the “Solubility (w/w)” value ([5]; in Imwitor 960, 65° C.) was 0.0488 w/w. For the same compound, the “Solubility (w/w)” value ([5]; in Kollisolv MCT70, 65° C.) was 0.0179 w/w, the “Solubility (w/w)” value ([5]; in Labrafac, 65° C.) was 0.0120 w/w and the “Solubility (w/w)” value ([5]; in Labrasol, 65° C.) was 0.173 w/w. The “Solubility (w/w)” value ([5]; in Migloyl 812 N, 65° C.) was 0.0153 w/w, the “Solubility (w/w)” value ([5]; in Migloyl 829, 65° C.) was 0.0210 w/w and the “Solubility (w/w)” value ([5]; in Poloxamer 188, 65° C.) was 0.153 w/w. For the same compound, the “Solubility (w/w)” value ([5]; in TPGS, 65° C.) was 0.164 w/w, the “Solubility (w/w)” value ([5]; in Tween 20, 65° C.) was 0.166 w/w and the “Solubility (w/w)” value ([5]; in Tween 80, 65° C.) was 0.141 w/w. The IC50 ([6]; PC-3 sensitive) was 7.9 ± 0.3 µM and the “Concentration with anticancer effects” value (cancer cells) was 5 to 30 µM.

For `Nc1nc(=O)n([C@@H]2CS[C@H](CO)O2)cc1F` [FTC, emtricitabine], the Bioavailability ([1]; oral) is given as “over 98%”.

In the case of `CN(Cc1cnc2nc(N)nc(N)c2n1)c1ccc(C(=O)N[C@@H](CCC(=O)O)C(=O)O)cc1` [MTX, methotrexate], the Bioavailability ([1]; oral) is given as 30%.

For `CC(C)OC(=O)OCOP(=O)(CO[C@H](C)Cn1cnc2c(N)ncnc21)OCOC(=O)OC(C)C` [TDF, tenofovir disoproxil fumarate], the Bioavailability ([1]; oral) is listed as 25%.

`CC(=O)O[C@@]12CO[C@@H]1C[C@H](O)[C@@]1(C)C(=O)[C@H](O)C3=C(C)[C@@H](OC(=O)[C@H](O)[C@@H](NC(=O)OC(C)(C)C)c4ccccc4)C[C@@](O)([C@@H](OC(=O)c4ccccc4)[C@H]21)C3(C)C` [docetaxel] gave an IC50 ([2]; PC3 resistance) of 0.0753 ± 0.0027 µM, an IC50 ([3]; DU-145, DU145 resistance) of 0.87 ± 0.0854 µM and an IC50 ([4]; DU-145, DU145 sensitive) of 0.0068 ± 0.0005 µM. For the same compound, the “Solubility (w/w)” value ([5]; in Imwitor 960K, 65° C.) was 0.053 w/w, the “Solubility (w/w)” value ([5]; in Kollisolv MCT70, 65° C.) was 0.038 w/w and the “Solubility (w/w)” value ([5]; in Kolliwax GMS I, 65° C.) was 0.025 w/w. For the same compound, the “Solubility (w/w)” value ([5]; in Labrafac, 65° C.) was 0.022 w/w, the “Solubility (w/w)” value ([5]; in Migloyl 812, 65° C.) was 0.079 w/w and the “Solubility (w/w)” value ([5]; in Oleic acid, 65° C.) was 0.066 w/w. The “Solubility (w/w)” value ([5]; in Poloxamer 188, 65° C.) was 0.019 w/w, the “Solubility (w/w)” value ([5]; in TPGS, 65° C.) was 0.008 w/w and the “Solubility (w/w)” value ([5]; in Tween 20, 65° C.) was 0.052 w/w. For the same compound, the “Solubility (w/w)” value ([5]; in Tween 80, 65° C.) was 0.082 w/w and the IC50 ([6]; PC3 sensitive) was 0.007 ± 0.0004 µM.

`Cc1cccc(C)c1OCC(=O)N[C@@H](Cc1ccccc1)[C@@H](O)C[C@H](Cc1ccccc1)NC(=O)[C@H](C(C)C)N1CCCNC1=O` [lopinavir] gave an Estimated solubility ([5]; in Brij 78, 65° C.) of 0.4725 mg/mg, an Estimated solubility ([5]; in Glyceryl behenate, 65° C.) of 0.0744 mg/mg and an Estimated solubility ([5]; in Killiphor P 188/Poloxamer F68, 65° C.) of 0.3431 mg/mg. For the same compound, the Estimated solubility ([5]; in Kollisolv MCT70, 65° C.) was 0.0779 mg/mg, the Estimated solubility ([5]; in Kolliwax GMS I, 65° C.) was 0.5846 mg/mg and the Estimated solubility ([5]; in Miglyo812, 65° C.) was 0.0703 mg/mg. For the same compound, the Estimated solubility ([5]; in Oleic acid, 65° C.) was 1.19 mg/mg, the Estimated solubility ([5]; in TPGS, 65° C.) was 0.6012 mg/mg and the concentration at 6 days ([7]; 100 mg/kg of LPV, read-out: LPV Ctrough) was greater than 160 ng/mL.

For `CC(C)c1nc(CN(C)C(=O)N[C@H](C(=O)N[C@@H](Cc2ccccc2)C[C@H](O)[C@H](Cc2ccccc2)NC(=O)OCc2cncs2)C(C)C)cs1` [ritonavir], the concentration at 6 days ([7]; read-out: RTV Ctrough) was roughly 50 ng/mL.
